Data from publication PMC2099433, “The binding site for neohesperidin dihydrochalcone at the human sweet taste receptor” (BMC Structural Biology, 2007).
Numbering of substitutions follows the chain as printed. Where a SMILES comes first, the peptide text is derived from it.

Legend:
[1] = target: T1, hTAS1R2 + hTAS1R3 F624L^2.61 (Homo sapiens, UniProt Q7RTX0+Q8TE23, F624L); test: Calcium response (FLIPR), hTAS1R3 mutant coexpressed with hTAS1R2; type: cell-based; conditions: variant F624L^2.61; for EC50: (>) EC50 not calculable because saturation is not reached; for Emax: read-out: maximal signal (% of wt)
T1 construct: expressed in transfected cells; host or cells: HEK293T cells stably expressing G16Gust44
T1 sequence (Q8TE23 20-839): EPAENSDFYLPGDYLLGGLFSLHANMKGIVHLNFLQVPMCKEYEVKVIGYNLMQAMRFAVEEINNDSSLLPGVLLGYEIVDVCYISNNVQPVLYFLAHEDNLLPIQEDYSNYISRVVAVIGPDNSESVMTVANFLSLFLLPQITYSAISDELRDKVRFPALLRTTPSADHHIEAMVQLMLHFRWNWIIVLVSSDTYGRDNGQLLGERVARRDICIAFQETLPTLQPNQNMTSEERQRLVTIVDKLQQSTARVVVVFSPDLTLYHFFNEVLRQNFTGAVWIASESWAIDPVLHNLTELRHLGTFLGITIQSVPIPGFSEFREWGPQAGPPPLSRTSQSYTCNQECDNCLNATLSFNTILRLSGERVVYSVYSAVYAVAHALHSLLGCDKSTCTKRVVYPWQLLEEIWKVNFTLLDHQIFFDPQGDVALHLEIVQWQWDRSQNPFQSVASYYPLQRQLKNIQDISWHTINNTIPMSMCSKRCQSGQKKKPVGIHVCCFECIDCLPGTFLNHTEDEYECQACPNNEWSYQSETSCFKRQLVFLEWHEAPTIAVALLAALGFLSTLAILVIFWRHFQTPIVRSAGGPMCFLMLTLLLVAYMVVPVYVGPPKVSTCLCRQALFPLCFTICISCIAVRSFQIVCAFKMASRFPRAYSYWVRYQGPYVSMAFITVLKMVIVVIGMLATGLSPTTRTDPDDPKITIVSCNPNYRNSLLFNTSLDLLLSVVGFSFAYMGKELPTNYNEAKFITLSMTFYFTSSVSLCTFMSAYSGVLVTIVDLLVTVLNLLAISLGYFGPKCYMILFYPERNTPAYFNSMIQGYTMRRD
T1 sequence (Q7RTX0 21-852 F624L): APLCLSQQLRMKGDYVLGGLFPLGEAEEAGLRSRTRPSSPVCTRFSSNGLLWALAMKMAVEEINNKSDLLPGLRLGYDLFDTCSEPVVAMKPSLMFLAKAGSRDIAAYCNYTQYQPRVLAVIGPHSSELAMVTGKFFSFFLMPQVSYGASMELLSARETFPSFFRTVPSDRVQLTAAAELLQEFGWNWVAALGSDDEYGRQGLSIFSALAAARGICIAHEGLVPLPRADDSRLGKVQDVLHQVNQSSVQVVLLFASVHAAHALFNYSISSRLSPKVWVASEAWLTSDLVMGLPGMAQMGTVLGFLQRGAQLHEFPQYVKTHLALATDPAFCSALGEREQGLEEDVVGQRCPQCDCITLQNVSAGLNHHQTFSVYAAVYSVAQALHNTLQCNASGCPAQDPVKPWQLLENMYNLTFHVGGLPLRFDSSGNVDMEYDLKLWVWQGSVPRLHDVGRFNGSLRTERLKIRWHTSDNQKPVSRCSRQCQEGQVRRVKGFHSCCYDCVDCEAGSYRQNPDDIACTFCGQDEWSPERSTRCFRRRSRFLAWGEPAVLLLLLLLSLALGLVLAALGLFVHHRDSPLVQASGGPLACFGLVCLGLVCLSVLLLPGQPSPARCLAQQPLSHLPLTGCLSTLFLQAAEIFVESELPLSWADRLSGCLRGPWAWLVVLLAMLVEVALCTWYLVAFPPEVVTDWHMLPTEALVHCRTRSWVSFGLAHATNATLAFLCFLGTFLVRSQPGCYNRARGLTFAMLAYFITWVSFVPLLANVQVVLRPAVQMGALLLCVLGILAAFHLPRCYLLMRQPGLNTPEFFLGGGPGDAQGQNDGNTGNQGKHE
How it was run: (§1)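 Read-out: FLIPR calcium signal as ΔF/F = (F-F0)/F0, corrected for mock-transfected cells. Cells were HEK293T stably carrying G16Gust44, transiently transfected with HSV-tagged receptor cDNAs and dye-loaded with Fluo4-AM 24 h post transfection.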

[2] = target: T2, hTAS1R2 + hTAS1R3 A733V^5.46 (Homo sapiens, UniProt Q7RTX0+Q8TE23, A733V); test: as above; type: cell-based; conditions: variant A733V^5.46; for Emax: read-out: maximal signal (% of wt)
T2 construct: expressed in transfected cells; host or cells: HEK293T cells stably expressing G16Gust44
T2 sequence (Q8TE23 20-839): T1 sequence (Q8TE23 20-839)
T2 sequence (Q7RTX0 21-852 A733V): T1 sequence (Q7RTX0 21-852 F624L) with L604F, A713V
How it was run: as §1

EC50 [1] | Emax [1] | EC50 [2] | Emax [2] | SMILES
> 1 mM | 35 ± 70% | 100 ± 20 µM | 133 ± 8% | COc1ccc(CCC(=O)c2c(O)cc(O[C@@H]3O[C@H](CO)[C@@H](O)[C@H](O)[C@H]3O[C@@H]3O[C@@H](C)[C@H](O)[C@@H](O)[C@H]3O)cc2O)cc1O [NHDC, neohesperidin dihydrochalcone]
1.4 ± 0.2 mM | 21 ± 4% | 1100 ± 300 µM | 92 ± 80% | COC(=O)[C@H](Cc1ccccc1)NC(=O)[C@@H](N)CC(=O)O [aspartame] (HELM PEPTIDE1{D.F.[CO[*:1]]}$$$$V2.0)
